Data published in patent US20110275559A1, “Long-Acting Y2 and/or Y4 Receptor Agonists” (Novo Nordisk A/S, priority 2008, published 2011).
*1 amine or outer side, *2 acyl side, *3 side chain or, on linkers, in order; H or OH if unused. Where a SMILES comes first, the peptide text is derived from it. Side-chain parts run from the residue outwards. The star is where a group is joined. C20 diacid = O=C(O)CCCCCCCCCCCCCCCCCCC(=O)*; γGlu = O=C(O)[C@H](CCC(=O)[*:2])N[*:1]; Trx = NC[C@H]1CC[C@H](C(=O)O)CC1; AEEA = NCCOCCOCC(=O)O

Assay: Mini-pig PK assay (plasma half-life)
Settings: Göttingen, minipig, in vivo, iv
Description: (§1) The mini-pigs had two central venous catheters inserted which were used for intra venous (i.v.) dosing and bloodsampling. Compound was dissolved in 50 mM K2HPO4, 0.05% tween 80, pH=8.0 to a concentration of 180 nmol/ml. The pigs were dosed with 6 nmol compound/kg body weight. […] The blood samples were collected into test tubes containing EDTA buffer for stabilization and kept on ice for max. 20 minutes before centrifugation. The centrifugation procedure to separate plasma was; 4° C., 3000 rpm for 10 minutes. Plasma were collected and immediately transferred to Micronic tubes stored at −20° C. until assayed.
An additional mini-pig PK assay was used for measuring PK of the compounds of the invention. […] The animals had two central venous catheters inserted which were used for intra venous (i.v.) dosing and blood sampling. Compounds were dissolved in 10 mM Na2HPO4, 150 mM NaCl, 0.01% tween 80, pH=4.0 to concentrations in the range of 40 nmol/ml to 200 nmol/ml. The mini-pigs were dosed i.v. with 10 nmol compound/kg body weight, occasionally other doses such as 4 nmol/kg, 30 nmol/kg or 50 nmol/kg were administered. Each compound was dosed to 3 or 4 mini-pigs, and two compounds may be given simultaneously to the same animal. Blood were sampled pre-dose and 12 times during the first 10 hours post-dose. Blood were furthermore sampled once daily until 13 days post dosing. The blood samples were collected into test tubes containing EDTA buffer, trasylol and Val-Pyr for stabilization and kept on ice for max. 20 minutes. Samples were centrifuged at 4° C., 2000G for 10 minutes to separate plasma. Plasma were collected and immediately transferred to Micronic tubes stored at −20° C. until assayed.
Plasma samples were analysed by LC-MS on an LTQ-Orbitrap (ThermoFisher Scientific, Bremen) to which Accela HPLC pumps and an autosampler were connected (both from ThermoFisher). […] HPLC was performed on a Jupiter Proteo column (4μ) 90A (50×2.0 mm ID). […] The flow rate was 0.3 ml/min. For analysis of plasma samples, 30 μl plasma was precipitated with 90 μl ethanol. […] The heptane phase was removed after 5 min and the remaining solution was analysed by LC-MS as described above. For construction of plasma standards, compound was spiked to plasma (minipig) at the following concentrations: 1 nM, 2 nM, 5 nM, 10 nM, 20 nM, 50 nM, 100 nM, 200 nM. The plasma standards were treated as the samples. The lower limit of quantification was estimated to 2 nM.
Non-compartmental analysis (NCA): Plasma concentration-time profiles were analyzed by non-compartmental pharmacokinetics analysis (NCA) using WinNonlin Professional 5.0 (Pharsight Inc., Mountain View, Calif., USA). NCA was performed using the individual plasma concentration-time profiles from each animal.
For determination of plasma concentration of the PYY and PP peptide derivative or analogues thereof the following Methods 1-4 were used.
as §1, with “bloodsampling. The compound” for “bloodsampling. Compound”, “to an appropriate” for “to a”, “concentration (e.g. 25-500 nmol/mL).” for “concentration of 180 nmol/ml.”, “dosed intravenously (i.v.) or subcutaneously (s.c.)” for “dosed”, “with between 1 and 30” for “with 6”, “buffer (with Aprotinin 15000 KIE/mL and Val-Pyr 0.30 mM)” for “buffer”
An additional mini-pig PK assay was used for measuring PK of the compounds of the invention. […] The animals had two central venous catheters inserted which were used for intra venous (i.v.) dosing and blood sampling.

SMILES	half-life (13 nmol/kg)	half-life (8 nmol/kg)
CC[C@H](C)[C@H](NC(=O)[C@H](Cc1ccc(O)cc1)NC(=O)[C@H](CCCNC(=N)N)NC(=O)[C@H](CCCCNC(=O)COCCOCCNC(=O)COCCOCCNC(=O)CC[C@H](NC(=O)[C@H]1CC[C@H](CNC(=O)CCCCCCCCCCCCCCCCCCC(=O)O)CC1)C(=O)O)NC(=O)[C@H](CC(C)C)NC(=O)[C@H](CC(=O)O)NC(=O)[C@H](C)NC(=O)[C@H](C)NC(=O)[C@H](Cc1ccc(O)cc1)NC(=O)[C@H](CCC(N)=O)NC(=O)[C@H](C)NC(=O)[C@H](CC(C)C)NC(=O)[C@H](CCC(N)=O)NC(=O)[C@H](CCC(=O)O)NC(=O)[C@@H]1CCCN1C(=O)[C@@H](NC(=O)[C@H](C)NC(=O)[C@H](CC(N)=O)NC(=O)[C@H](CC(=O)O)NC(=O)CNC(=O)[C@@H]1CCCN1C(=O)[C@H](Cc1ccc(O)cc1)NC(=O)[C@@H](NC(=O)[C@@H]1CCCN1C(=O)[C@H](CCC(=O)O)NC(=O)[C@H](CC(C)C)NC(=O)[C@@H]1CCCN1C(=O)[C@H](C)N)C(C)C)[C@@H](C)O)C(=O)N[C@@H](CC(N)=O)C(=O)N[C@@H](CC(C)C)C(=O)N[C@@H](CC(C)C)C(=O)N[C@H](C(=O)N[C@@H](CCCNC(=N)N)C(=O)N1CCC[C@H]1C(=O)N[C@@H](CCCNC(=N)N)C(=O)N[C@@H](Cc1ccc(O)cc1)C(N)=O)[C@@H](C)O [SEQ ID NO: 71, N-epsilon25-[2-(2-{2-[2-(2-{2-[(S)-4-Carboxy-4-({trans-4-[(19-carboxynonadecanoylamino)methyl]cyclohexanecarbonyl}amino)butyrylamino]-ethoxy}ethoxy)acetylamino]ethoxy}ethoxy)acetyl][Leu17,Lys25,Leu30]hPP1-36] (H-APLEPVYPGDNATPEQLAQYAADLK([AEEA-AEEA-γGlu-Trx-C20 diacid])RYINLLTRPRY-NH2)	13 h	–
CC[C@H](C)[C@H](NC(=O)[C@H](Cc1ccc(O)cc1)NC(=O)[C@H](CCCNC(=N)N)NC(=O)[C@H](CCCNC(=N)N)NC(=O)[C@H](CC(C)C)NC(=O)[C@H](CC(=O)O)NC(=O)[C@H](C)NC(=O)[C@H](C)NC(=O)[C@H](Cc1ccc(O)cc1)NC(=O)[C@H](CCC(N)=O)NC(=O)[C@H](C)NC(=O)[C@H](CC(C)C)NC(=O)[C@H](CCC(N)=O)NC(=O)[C@H](CCCCNC(=O)COCCOCCNC(=O)COCCOCCNC(=O)CC[C@H](NC(=O)[C@H]1CC[C@H](CNC(=O)CCCCCCCCCCCCCCCCCCC(=O)O)CC1)C(=O)O)NC(=O)[C@@H]1CCCN1C(=O)[C@@H](NC(=O)[C@H](C)NC(=O)[C@H](CC(N)=O)NC(=O)[C@H](CC(=O)O)NC(=O)CNC(=O)[C@@H]1CCCN1C(=O)[C@H](Cc1ccc(O)cc1)NC(=O)[C@@H](NC(=O)[C@@H]1CCCN1C(=O)[C@H](CCC(=O)O)NC(=O)[C@H](CC(C)C)NC(=O)[C@@H]1CCCN1C(=O)[C@H](C)N)C(C)C)[C@@H](C)O)C(=O)N[C@@H](CC(N)=O)C(=O)N[C@@H](CC(C)C)C(=O)N[C@@H](CC(C)C)C(=O)N[C@H](C(=O)N[C@@H](CCCNC(=N)N)C(=O)N1CCC[C@H]1C(=O)N[C@@H](CCCNC(=N)N)C(=O)N[C@@H](Cc1ccc(O)cc1)C(N)=O)[C@@H](C)O [SEQ ID NO: 72, N-epsilon15-[2-(2-{2-[2-(2-{2-[(S)-4-Carboxy-4-({trans-4-[(19-carboxynonadecanoylamino)methyl]cyclohexanecarbonyl}amino)butyrylamino]-ethoxy}ethoxy)acetylamino]ethoxy}ethoxy)acetyl][Leu17,Lys15,Leu30]hPP1-36] (H-APLEPVYPGDNATPK([AEEA-AEEA-γGlu-Trx-C20 diacid])QLAQYAADLRRYINLLTRPRY-NH2)	–	14 h
